Results reported in PMC6232110, “Two novel, putative mechanisms of action for citalopram-induced platelet inhibition” (Scientific Reports, 2018).

Legend:
CalDAG-GEFI = molecular target: T1, CalDAG-GEFI (Homo sapiens, UniProt Q7LDG7); test: BODIPY-FL-GDP fluorescence nucleotide exchange assay with purified recombinant CalDAG-GEFI and Rap1B; assay type: biochemical
T1 construct: gene RASGRP2; recombinant 6xHis, C-terminal truncation p.(Ala552_Leu609del); with Rap1B
Text: BODIPY-FL-GDP fluorescence nucleotide exchange assay with purified recombinant CalDAG-GEFI and Rap1B on CalDAG-GEFI | Citalopram inhibited CalDAG-GEFI-mediated BODIPY-FL-GDP exchange onto Rap1B in a concentration-dependent manner

glycoprotein VI (GPVI) = molecular target: T2, glycoprotein VI (GPVI) (Homo sapiens, UniProt Q9HCN6); test: Schild analysis of CRPXL-induced platelet aggregation; inhibition of anti-GPVI antibody binding by flow cytometry; assay type: cell-based; details: platelets; read-out: Kd
T2 construct: gene GP6; native GPVI on washed human platelets; with FcRγ chain
T2 sequence (Q9HCN6 21-339): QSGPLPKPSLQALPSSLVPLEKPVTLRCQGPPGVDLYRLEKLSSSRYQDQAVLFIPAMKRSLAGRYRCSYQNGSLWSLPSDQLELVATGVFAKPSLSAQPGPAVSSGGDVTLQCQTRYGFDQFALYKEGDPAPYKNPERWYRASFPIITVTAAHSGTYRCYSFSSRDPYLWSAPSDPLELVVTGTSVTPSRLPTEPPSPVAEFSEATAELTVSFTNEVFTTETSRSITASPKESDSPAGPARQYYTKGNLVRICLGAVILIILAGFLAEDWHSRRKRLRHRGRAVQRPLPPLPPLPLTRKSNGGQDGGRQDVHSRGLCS
T2 sequence (P30273 19-86 partner): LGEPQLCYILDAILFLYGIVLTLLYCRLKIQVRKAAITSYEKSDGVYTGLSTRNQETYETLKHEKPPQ

T1 sequence (P61224 1-167): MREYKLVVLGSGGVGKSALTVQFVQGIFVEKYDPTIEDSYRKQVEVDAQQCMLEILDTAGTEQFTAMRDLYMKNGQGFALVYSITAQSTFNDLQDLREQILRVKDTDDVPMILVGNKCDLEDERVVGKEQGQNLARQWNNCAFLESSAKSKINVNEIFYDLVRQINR
T1 sequence (Q7LDG7 1-551): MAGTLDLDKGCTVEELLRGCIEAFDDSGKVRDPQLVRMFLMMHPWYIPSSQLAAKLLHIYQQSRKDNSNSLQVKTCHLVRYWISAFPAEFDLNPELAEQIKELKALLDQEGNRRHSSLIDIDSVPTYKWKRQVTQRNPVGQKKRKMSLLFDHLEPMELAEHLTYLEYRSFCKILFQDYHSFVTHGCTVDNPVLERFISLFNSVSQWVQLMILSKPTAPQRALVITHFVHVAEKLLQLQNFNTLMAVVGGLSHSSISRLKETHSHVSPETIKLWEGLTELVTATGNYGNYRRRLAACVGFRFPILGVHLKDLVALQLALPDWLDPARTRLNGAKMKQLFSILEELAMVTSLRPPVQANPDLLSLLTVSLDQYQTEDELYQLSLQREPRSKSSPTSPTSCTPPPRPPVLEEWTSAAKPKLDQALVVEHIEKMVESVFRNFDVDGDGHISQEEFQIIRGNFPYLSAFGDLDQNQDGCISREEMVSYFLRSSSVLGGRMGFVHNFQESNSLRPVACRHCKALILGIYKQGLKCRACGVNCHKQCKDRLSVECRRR

SMILES: CN(C)CCCC1(c2ccc(F)cc2)OCc2cc(C#N)ccc21 (racemic) [citalopram]
- IC50 (CalDAG-GEFI): 214 µM
- Kb (glycoprotein VI (GPVI)): ~16 µM
